From a melting point compilation (Tetko et al.; mined from patent text by program, amines drawn as free bases though some values may be those of a salt)

Row | SMILES | melting point [°C]
1 | O=C(/C=C/c1ccccc1Cl)/C=C/c1ccccc1Cl | 116 to 118
2 | Cc1nnn(-c2ccc(F)cc2)c1CCl | 70 to 71
3 | N#Cc1nn(-c2c(Cl)cc(C(F)(F)F)cc2Cl)c(N)c1C#CCO | 237 to 239
4 | Cc1sc2c(c1C)C(c1ccc(Cl)cc1)=N[C@@H](CC(=O)Nc1ccc(O)cc1)c1nnc(C)n1-2 | 215 to 220
5 | C[Si](C)(C)C#Cc1c(C#N)nn(-c2c(Cl)cc(OC(F)(F)F)cc2Cl)c1N | 152
6 | C=CCOc1cc(-n2c(OCC)nc(C(F)(F)F)cc2=O)c(F)cc1Br | 68 to 70
7 | CN1c2ccccc2-c2nc3ccc(Cl)cc3c3cc(OS(=O)(=O)C(F)(F)F)cc1c23 | 193 to 195
8 | CCCCCCCCC1N=C(N)NC(Nc2cc(C(C)(C)C)ccc2OC)=N1 (stereo not given) | 129 to 132
9 | CCCCn1nc(CCc2cccs2)nc1Cc1ccc(-c2ccccc2-c2nnn[nH]2)nc1 | 116 to 118
10 | CCOC(=O)CC(O)CP(=O)(OCC)OCC (stereo not given) | 33 to 35
11 | O=C(NCC(O)c1ccccc1)c1ccccc1 (stereo not given) | 140 to 143
12 | O=S(=O)(c1ccc(O)c(-c2ccccc2)c1)c1ccc(O)c(-c2ccccc2)c1 | 243 to 245
13 | CC(C)(C)OC(=O)NCCS(C)(=O)=O | 85 to 86
14 | C=CCNc1ccc(C(=O)O)cc1 | 144 to 146
15 | CC1(c2nnc(S(C)(=O)=O)s2)CC(F)(F)C1(F)Cl (stereo not given) | 63
16 | N#Cc1ccc(CNC(=O)C2Cc3ccccc3N2S(=O)(=O)c2ccc(-c3cccc(C(F)(F)F)c3)cc2)cc1 (stereo not given) | 80 to 89
17 | Cc1ccc(Nc2c3ccccc3nc3c(C)cccc23)cc1NC(=O)Oc1ccc(N(CCCl)CCCl)cc1 | 154 to 156
18 | Nn1c(-c2ccccc2Cl)nnc1-c1ccccc1Cl | 168 to 170
19 | Cc1cc(NCc2ccccc2)c2cc(NC(=O)C=Cc3ccccc3Cl)ccc2n1 | 253 to 254
20 | COC(=O)OCc1cnc(C)c(OC(=O)OC)c1 | 65
21 | CC1(C)CCC(C)(C)c2cc(-c3cc(I)ccc3-c3ccccc3)ccc21 | 120 to 122
22 | NC(=O)N(O)CCOc1ccc2c(c1)CCN(Cc1ccc(-c3ccc(F)cc3)cc1)C2=O | 171 to 172
23 | CN(C)N=C(O)c1cc(C(=N)O)c(C(=O)O)cc1C(=O)O | 293 to 295
24 | CCOC(=O)c1cn(CC)c2cc(-c3csc(C(C)NC(C)=O)n3)c(F)cc2c1=O (stereo not given) | 236 to 238
25 | CN(C)/N=C(/C(=O)O)c1ccc(OCCOc2ccc3ccccc3c2)cc1 | 135
26 | Cc1cccc2nc(-c3c(F)cccc3F)[nH]c12 | 148
27 | O=C(O)c1c(O)cccc1-n1cccn1 | 175 to 179

Row | SMILES | melting point [°C]
28 | NC(=O)CC(C(N)=O)(c1ccc(F)cc1)c1ccc(F)cc1 | 192 to 193
29 | CCCCCCc1ccc(-n2c(-c3ccc(C)cc3)ccc2-c2ccc(C)cc2)cc1 | 147 to 148
30 | Cc1ccc(C2=NN=C(c3ccccc3Cl)N(C)N2)cc1 | 152 to 154
31 | O=c1c2cccnc2n(-c2cccc([N+](=O)[O-])c2)c(=O)n1CCO | 212 to 213
32 | COc1cccc(/C=C(/C(=O)O)c2cc(OC)c(OC)c(OC)c2)c1 | 68 to 70
33 | Nc1c(-c2ccc(C(F)(F)F)cc2F)nnn1Cc1ccc(O)cc1 | 168 to 170
34 | O=C1Cc2cccc(Oc3ccc4ccccc4c3)c2N1 | 195 to 197
35 | Cc1c(C2CCC(c3ccccc3)(N(C)C)CC2)[nH]c2ccc(C#N)cc12 (stereo not given) | 235 to 240
36 | O=C(O)CCc1cc(-c2ccccc2)nn1Cc1ccc(Cl)cc1Cl | 160 to 161
37 | CCOC(=O)Cc1c(C(=O)O)c2cc(Oc3ccc(C(F)(F)F)cn3)ccc2n1-c1ccc(OC(C)C)cc1 | 202
38 | COc1ccc(-c2[nH]cnc2-c2cc(OC)c([N+](=O)[O-])c(OC)c2)cc1O | 148 to 149
39 | Cc1ccc(Oc2ccc(NN)cc2)c(O)c1 | 145 to 148
40 | COc1cc(C)nc(NC(=O)NS(=O)(=O)c2cccc3cccnc23)n1 | 181 to 185
41 | COc1ccc(C2CN(C)Cc3c(N)cccc32)cc1OC (stereo not given) | 143 to 144
42 | O=C(NC(c1ccccc1)c1cc2ccncc2[nH]1)c1ccccc1 (stereo not given) | 206 to 208
43 | CCC(COC)NC(=O)C(C)(C)c1ccc(-c2ccccc2)c(F)c1 (stereo not given) | 81 to 82
44 | O=C(O)C(=O)CC(=O)c1cccn1Cc1ccccc1Br | 176 to 180
45 | Cc1ccc2nc(CCl)n3cnnc3c2c1 | 175
46 | C#CCSc1nc(-c2ccccc2)no1 | 39.4
47 | CC(C)Cn1c(CNC(=O)OC(C)(C)C)c(-c2cccc(F)c2)c2cc(C(N)=O)ccc2c1=O | 147 to 149
48 | CCOc1nn(Cc2ccc(OCc3ccc4ccccc4n3)nc2)cc1CCC(=O)O | 133 to 134
49 | CN(C(=O)OC(C)(C)C)c1cc(Oc2ccc(-c3nnn(C(c4ccccc4)(c4ccccc4)c4ccccc4)n3)cc2)ccc1[N+](=O)[O-] | 161 to 163
50 | CCc1c(CC(=O)NCCCCCCN)ccc(OC)c1OC | 136 to 138
51 | CNC(=O)CC(O)(c1ccc(Br)cc1)c1cccnc1 (stereo not given) | 188 to 191
52 | CNc1cc(Oc2cccc(C(F)(F)F)c2)nc(C(=O)NC(C)C)c1 | 89 to 90
53 | CC1(N2C(=O)c3cccc([N+](=O)[O-])c3C2=O)C=CC(OC(F)(F)C(F)C(F)(F)F)=CC1 (stereo not given) | 121

Next, values leading:

Row | melting point [°C] | SMILES
54 | 77 to 78 | CCOC(=O)c1nn(-c2cccc(C(F)(F)F)c2)c2c1CCCC2
55 | 328 | S=c1[nH]cnc2c(Br)csc12
56 | 96.5 | O=[N+]([O-])c1ccc2c(c1)CCC(CO)O2 (stereo not given)
57 | 104 to 106 | CCOC(=O)/C=C/c1ccc(O)c(Cl)c1
58 | 112 | CN1C(=O)CN(c2ccccc2)C1=S
59 | 146 to 147 | CC(=O)COc1cc(-c2ncc(C(F)(F)F)cc2Cl)ccc1C#N
60 | 247 to 251 | Cc1[nH]c(C(=O)N2CCC(C(=O)NCCCN(C)C)CC2)c(C)c1-c1nc2ccc(C(=O)c3ccccc3)cc2[nH]1
61 | 133 to 134 | CCN1c2ncc(CCc3ccnc(CO)c3)cc2C(=O)N(C)c2ccc(Cl)nc21
62 | > 240 | Cc1c(C=O)c2cc(Cl)ccc2n1-c1ccc(O)cc1
63 | 68 to 70 | CSC(=C[N+](=O)[O-])NCCSCc1ccco1
64 | 73 to 75 | COC(=O)CNC(=O)C1CSSC1
65 | 189 to 190 | O=C(O)c1nc(C2CC2)[nH]c(=O)c1Cl
66 | 141 to 142 | O=[N+]([O-])c1ccc(CN2CCCCc3sccc32)cc1
67 | 190 to 192 | CCOC(=O)C1(CC(N)=O)C(=O)N(Cc2ccc(Br)cc2F)C(=O)c2cccn21 (stereo not given)
68 | 134 to 135 | CCc1cc2c(cc1O)CCC1C2CCC2(C)C(CCO[Si](c3ccccc3)(c3ccccc3)C(C)(C)C)CCC12 (stereo not given)
69 | 205 to 206 | O=S1(=O)N=CN(C2CC2)c2cc(Cl)c(F)cc21
70 | 88 to 91 | COC1C(O)C(CO)OC1n1cnc2c(NC3CCCCC3)ncnc21 (stereo not given)
71 | 125 to 126 | CC(C)CNC(=O)[C@H](C)C[C@H](O)[C@H](CC1CCCCC1)NC(=O)OC(C)(C)C
72 | 254 to 256 | O=C(O)/C=C1\CCc2c(F)cc(Cl)cc21
73 | 177 to 179 | c1ccc(C2CCNC3=NCCCN32)cc1 (stereo not given)
74 | 125 | COc1c(C(C)C)cc(S(N)(=O)=O)c(C)c1C(=O)NCC1CCCN1CC1CC1 (stereo not given)
75 | 140 | CC1(C)COC(c2ccccc2)(c2ccc(N)c([N+](=O)[O-])c2)OC1
76 | 76 to 81 | COc1ccccc1N1CCN(CCN2C(=O)c3ccccc3C2=O)CC1
77 | > 300 | O=CN1CCN(c2ncc3c(=O)c(C(=O)O)c[nH]c3n2)CC1

Row | melting point [°C] | SMILES
78 | 207 to 209 | CC1CN(c2nc3ccccc3s2)N=C1N (stereo not given)
79 | 105 to 108 | CC(=O)C(Oc1cc(Cl)cc(C#N)c1)C(C)=O
80 | 206 to 208 | O=C1C=C(O[C@@H]2c3cc([N+](=O)[O-])ccc3OC(CF)(CF)[C@H]2O)CC1 (relative stereo)
81 | 184 to 186 | FC(F)(F)Oc1ccc(C=CC(C=Cc2ccc(OC(F)(F)F)cc2)=NNC2=NCCCCN2)cc1
82 | 122 to 124 | O=C(O)C#CC(=O)c1ccc2c(c1)OCO2
83 | 221 to 226 | CCNCC1(C)CN(c2cc3c(cc2F)c(=O)c(C(=O)O)cn3C2CC2)C1
84 | 121 to 123 | COc1ccc(C2CCc3cc(Br)ccc3O2)cc1 (stereo not given)
85 | 230 to 232 | O=C(NC1CCN(Cc2ccccc2)CC1)c1ccc(Nc2c(C(=O)NC3CCN(Cc4ccccc4)CC3)cnc3cc(Cl)ccc23)cc1
86 | 201 to 203 | C=C1C(=O)NC(=O)N1c1cccc(Cl)c1Cl
87 | 142 | COc1ccc(C2CC(c3cccc(OC)c3)=NN2c2ccc(C(=O)O)cc2)cc1 (stereo not given)
88 | 117 to 119 | Cc1c(SCCN2CCOCC2)ccnc1CSc1nc2ccccc2n1C(=O)N(C)C
89 | 72 to 74 | CCOC(=S)c1ccc(C)c(-c2cc(C)no2)c1C
90 | 195 to 197 | Cc1cccc(N2Cc3nc(C(=O)O)nn3-c3ccccc32)c1C
91 | 56 to 68 | CC1C(O)CCC2CC3(CCC21)OCCO3 (stereo not given)
92 | 213 to 214 | O=S1(=O)N=C(NC2(CO)CCCC2)Nc2cc(Cl)sc21
93 | 228 to 230 | O=C1CC(c2cccc(-c3ocnc3C(=O)NCCO)c2)=Nc2ccc(-n3cccc3)cc2N1
94 | 160 to 161 | CC1=CN(c2ccc(Cl)c(Cl)c2)SC1
95 | > 290 | CN1CCc2c(N3CCCC3)c(F)c(N)c3c(=O)c(C(=O)O)cn1c23
96 | 189 | CCC(=O)N1CCC(C(=O)OC2c3ccccc3C(=O)N2c2ccc3ccc(Cl)nc3n2)CC1 (stereo not given)
97 | 104 | CC(SC1COC(c2ccc(C(=O)Nc3ccc(F)cc3)cc2)OC1)C(O)(Cn1cncn1)c1ccc(F)cc1F (stereo not given)
98 | 99 to 100 | C[Si](C)(C)OC1(C#N)CCOc2c(Cl)cc(-c3ccccc3)cc21 (stereo not given)
99 | 171 to 173 | O=C(OC1CCCCC1)c1ccc(Nc2nc(Nc3ccc(C(=O)OC4CCCCC4)cc3)nc(Nc3ccc(C(=O)OC4CCCCC4)cc3)n2)cc1
100 | 180 to 185 | CC(CO)C1CCC2C3CCC4=C(N)C(=O)CCC4(C)C3CCC12C (stereo not given)
